Source: patent US11547681B2, “N-acylethanolamide derivatives and uses thereof” (ELIEM THERAPEUTICS, INC., priority 2016, dated 2023)

Experiments:
in vitro = experiment: in vitro
Protocol: (§1) Reaction mixture, minus cofactors, was prepared as described below. Test article was added into the reaction mixture at a final concentration of 1 μM. […] An aliquot of the reaction mixture (without cofactor cocktail) was equilibrated in a shaking water bath at 37° C. for 3 minutes. The reaction was initiated by the addition of cofactor cocktail, and the mixture was incubated in a shaking water bath at 37° C. Aliquots (100 μL) were withdrawn at 0, 10, 20, 30, and 60 minutes. Test article samples were immediately combined with 300 μL of ice-cold acetonitrile containing 1% formic acid. Control samples were immediately combined with 400 μL of ice-cold 50/50 acetonitrile (ACN)/dH2O containing 0.1% formic acid and internal standard to terminate the reaction. Samples were then mixed and centrifuged to precipitate proteins. Calibration standards were prepared in matched matrix. Samples and standards were assayed by LC-MS/MS using electrospray ionization for both the dosed prodrug and the expected drug (PEA). Analytical conditions are outlined in Appendix 8-1. Test article concentration at each time point was compared to test article concentration at time 0 to determine the percent remaining at each time point. Halflives were calculated using GraphPad software, fitting to a single-phase exponential decay equation.
as §1, with “for 5” for “for 3”, “minutes. Reaction” for “minutes. The reaction”, “and” for “and the”, “both” for “both the”, “Appendix 10-1.” for “Appendix 8-1.”
Reaction mixture, minus cofactors, was prepared as described below. Test article was added into the reaction mixture at a final concentration of 1 μM. […] An aliquot of the reaction mixture (without cofactor cocktail) was equilibrated in a shaking water bath at 37° C. for 3 minutes. Reaction was initiated by the addition of cofactor cocktail, and the mixture was incubated in a shaking water bath at 37° C. Aliquots (100 μL) were withdrawn at 0, 10, 20, 30, and 60 minutes. Test article samples were immediately combined with 300 μL of ice-cold acetonitrile containing 1% formic acid. Control samples were immediately combined with 400 μL of ice-cold 50/50 acetonitrile (ACN)/dH2O containing 0.1% formic acid and internal standard to terminate the reaction. Samples were then mixed and centrifuged to precipitate proteins. Calibration standards were prepared in matched matrix. Samples and standards were assayed by LC-MS/MS using electrospray ionization for both dosed prodrug and expected drug (PEA). Analytical conditions are outlined in Appendix 13-1. Test article concentration at each time point was compared to test article concentration at time 0 to determine the percent remaining at each time point. Halflives were calculated using GraphPad software, fitting to a single-phase exponential decay equation.

[1] = Plasma stability (37° C., pH 7.4), rat; format: in vitro ADME, Sprague-Dawley rat; conditions: for half-life at 1 μM: male, Sprague-Dawley, rat, plasma, pH 7.4, rat plasma; for % Remaining of Initial: 1 μM, n = 1
Protocol: (§2) Studies were carried out in mixed-gender human plasma (Lot #GLP530-5), male Sprague-Dawley rat (Lot #RAT297944, RAT313140), male CD-1 mouse (Lot #MSE237700), and male Beagle dog (Lot #BGL87670, BGL82614), collected on sodium heparin. Plasma was adjusted to pH 7.4 prior to initiating the experiments. DMSO stocks were first prepared for the test articles. Aliquots of the DMSO solutions were dosed into 700 μL of plasma, which had been pre-warmed to 37° C., at a final test article concentration of 1 μM. […] Samples were stored at 4° C. until the end of the experiment. After the final time point was sampled, the plate was mixed and then centrifuged at 3,000 rpm for 10 minutes. Calibration standards were prepared in matched matrix. […] Analytical conditions are outlined in Appendix 8-1.
as §2, with “#AS1650-2),” for “#GLP530-5),”, “#RAT297944),” for “#RAT297944, RAT313140),”, “CD-I” for “CD-1”, “#BGL91384),” for “#BGL87670, BGL82614),”, “10-1.” for “8-1.”
Studies were carried out in mixed-gender human plasma (Lot #AS1650-2), male Sprague-Dawley rat (Lot #RAT297944), male CD-1 mouse (Lot #MSE237700), and male Beagle dog (Lot #BGL91384), collected on sodium heparin. Plasma was adjusted to pH 7.4 prior to initiating the experiments. DMSO stocks were first prepared for test articles. […] Samples were stored at 4° C. until the end of experiment. After the final time point was sampled, the plate was mixed and then centrifuged at 3,000 rpm for 10 minutes. Calibration standards were prepared in matched matrix. […] Analytical conditions are outlined in Appendix 13-1.
Studies were carried out in mixed-gender human plasma (Lot #AS 1650-2), male Sprague-Dawley rat (Lot #RAT320835), male CD-1 mouse (Lot #MSE260693), and 6 male Beagle dog (Lot #BGL91384), on sodium heparin. Plasma was adjusted to pH 7.4 prior to initiating the experiments. DMSO stocks were first prepared for the test articles. Aliquots of the DMSO solutions were dosed into 700 μL of plasma, which had been pre-warmed to 37° C., at a final test article concentration of 1 μM. […] Samples were stored at 4° C. until the end of the experiment. After the final time point was sampled, the plate was mixed and then centrifuged at 3,000 rpm for 10 minutes. Calibration standards were prepared in matched matrix. […] Analytical conditions are outlined in Appendix 17-1.

[2] = male, Beagle, dog, 10 min, 1 μM
[3] = male, Beagle, dog, 20 min, 1 μM
[4] = male, Beagle, dog, 30 min, 1 μM
[5] = male, Beagle, dog, 60 min, 1 μM
[6] = male, Beagle, dog, s9, 0 h, 1 μM
[7] = male, Beagle, dog, s9, 10 min, 1 μM
[8] = male, Beagle, dog, s9, 20 min, 1 μM
[9] = male, Beagle, dog, s9, 0.5 h, 1 μM
[10] = male, Beagle, dog, s9, 1 h, 1 μM
[11] = male, Beagle, dog, s9, Half-life

Structure (SMILES) | Measured concentration of PEA (analyte) (in vitro; male, Beagle, dog, 0 min, 1 μM) | Measured concentration of PEA (analyte) (in vitro; [2]) | Measured concentration of PEA (analyte) (in vitro; [3]) | Measured concentration of PEA (analyte) (in vitro; [4]) | Measured concentration of PEA (analyte) (in vitro; [5]) | % Remaining of Initial (in vitro; [6]) | % Remaining of Initial (in vitro; [7]) | % Remaining of Initial (in vitro; [8]) | % Remaining of Initial (in vitro; [9]) | % Remaining of Initial (in vitro; [10]) | microsomal CLint at 1 μM (in vitro; male, Beagle, dog, s9, CLint) | half-life at 1 μM (in vitro; [11]) | half-life at 1 μM ([1]; read-out: Half-life) | % Remaining of Initial ([1]; rat plasma, 0 min) | % Remaining of Initial ([1]; rat plasma, 15 min) | % Remaining of Initial ([1]; rat plasma, 30 min) | % Remaining of Initial ([1]; rat plasma, 60 min) | % Remaining of Initial ([1]; rat plasma, 120 min) | other results
CCCCCCCCCCCCCCCC(=O)NCCOC(=O)CCC(=O)OC(CO)CO [Compound I-8] | 0.33 µM | 0.71 µM | 0.81 µM | 0.67 µM | 0.81 µM | 100% | <1.0% | <1.0% | <1.0% | <1.0% | > 69.3 µL/min/mg | < 10 min | < 1 min | 100% | <1.0% | <1.0% | <1.0% | <1.0% | –
CCCCCCCCCCCCCCCC(=O)NCCOC(=O)CCC(=O)OC(COC(=O)CCC)COC(=O)CCC [Compound I-16] | 0.042 µM | 0.50 µM | 0.57 µM | 0.54 µM | 0.68 µM | 100% | 1.7% | <1.0% | <1.0% | <1.0% | > 69.3 µL/min/mg | < 10 min | < 15 min | 100% | 20% | 9.3% | 4.1% | 1.6% | half-life at 1 μM ([1]; read-out: Half-life, calculated value in parentheses): 6.9 min
CCCCCCCCCCCCCCCC(=O)NCCOC(=O)CCC(=O)OC[C@H]1O[C@@](CO)(O[C@H]2O[C@H](CO)[C@@H](O)[C@H](O)[C@H]2O)[C@@H](O)[C@@H]1O [Compound I-7] | – | – | – | – | – | – | – | – | – | – | – | – | – | – | – | – | – | – | Concentration (μM) of analyte PEA, 0 min (in vitro; male, Beagle, dog, 0 min, 1 μM): 0.38 µM; Concentration (μM) of analyte PEA, 10 min (in vitro; [2]): 0.36 µM; Concentration (μM) of analyte PEA, 20 min (in vitro; [3]): 0.55 µM; Concentration (μM) of analyte PEA, 30 min (in vitro; [4]): 0.51 µM; Concentration (μM) of analyte PEA, 60 min (in vitro; [5]): 0.50 µM; % Remaining of Initial (n = 1), 0 min (in vitro; [6]): 100%; % Remaining of Initial (n = 1), 10 min (in vitro; [7]): 1.1%; % Remaining of Initial (n = 1), 20 min (in vitro; [8]): <1.0%; % Remaining of Initial (n = 1), 30 min (in vitro; [9]): <1.0%; % Remaining of Initial (n = 1), 60 min (in vitro; [10]): <1.0%; microsomal CLint at 1 μM (in vitro; male, Beagle, dog, s9, CLint (mL/min/mg protein)): 452 µL/min/mg; half-life at 1 μM (in vitro; male, Beagle, dog, s9, Half-life (min)): 1.5 min; half-life at 1 μM ([1]; test article 1 μM, 37° C., pH 7.4, read-out: Half-life): < 1 min; % Remaining of Initial (n = 1), 0 min ([1]; rat plasma, test article 1 μM, 37° C., pH 7.4, 0 min): 100%; % Remaining of Initial (n = 1), 15 min ([1]; rat plasma, test article 1 μM, 37° C., pH 7.4, 15 min): <1.0%; % Remaining of Initial (n = 1), 30 min ([1]; rat plasma, test article 1 μM, 37° C., pH 7.4, 30 min): <1.0%; % Remaining of Initial (n = 1), 60 min ([1]; rat plasma, test article 1 μM, 37° C., pH 7.4, 60 min): <1.0%; % Remaining of Initial (n = 1), 120 min ([1]; rat plasma, test article 1 μM, 37° C., pH 7.4, 120 min): <1.0%
C[C@]12CC[C@H]3[C@@H](CCC4=CC(=O)CC[C@@]43C)[C@@H]1CC[C@@H]2O [Testosterone, testosterone, reference compound] | – | – | – | – | – | – | – | – | – | – | – | – | – | – | – | – | – | – | CLin (in vitro; control compound, dog intestinal S9 fraction): <0.0116 ml/min/mg protein; microsomal CLint (in vitro; male, Beagle, dog, s9, CLint (ml/min/mg protein), calculated value in parentheses, control compound, dog intestinal S9 fraction, calculated value beyond duration of experiment): 7.22 µL/min/mg; microsomal CLint (in vitro; male, Beagle, dog, s9, CLint (ml/min/mg protein), control compound, dog intestinal S9 fraction): < 11.6 µL/min/mg; microsomal CLint (in vitro; male, Beagle, dog, s9, CLint, Control Compound, Dog intestinal S9 fraction): < 11.6 µL/min/mg; microsomal CLint (in vitro; male, Beagle, dog, s9, CLint, Dog intestinal S9 fraction, control compound): < 11.6 µL/min/mg; half-life (in vitro; male, Beagle, dog, s9, Half-life (min), calculated value in parentheses, control compound, dog intestinal S9 fraction, calculated value beyond duration of experiment): 96 min; half-life (in vitro; male, Beagle, dog, s9, Half-life (min), control compound, dog intestinal S9 fraction): > 60 min; half-life (in vitro; male, Beagle, dog, s9, Half-life, Control Compound, Dog intestinal S9 fraction): > 60 min; half-life at 1 μM (in vitro; male, Beagle, dog, s9, Half-life, Dog intestinal S9 fraction): > 60 min; half-life (in vitro; male, Beagle, dog, s9, Half-life, control compound, dog intestinal S9 fraction): > 60 min
